Values quoted from earlier work in US20260115176A1, “ALLOSTERIC MODULATORS OF CANNABINOID RECEPTORS AND METHODS OF TREATING NEUROPATHIC PAIN” (The Board of Trustees of the Leland Stanford Junior …, priority 2020, published 2026).

System: rodent model of neuropathic pain
Details: background statement

Cc1ccc2c(C(C[N+](=O)[O-])c3cccs3)c(-c3ccccc3)[nH]c2c1 (centres unmarked) [ZCZ-011]
efficacy in rodent model of neuropathic pain: could treat a rodent model of neuropathic pain | psychoactive or hypothermic effects: without psychoactive or hypothermic effects
